Test results published in patent publication US7081467B2, “C2-disubstituted indan-1-ones and their derivatives, processes for their preparation and their use as pharmaceuticals” (Sanofi-aventis Deutschland GmbH, priority 2001, dated 2006).

Columns and labels:
female NMRI mice = assay: Anorectic action: cumulative milk consumption after 24 h feed removal; format: in vivo; conditions: feed removed 24 h, dose 20 mg/kg (ip or po, route not specified)
Protocol: The anorectic action was tested on female NMRI mice. After removal of feed for 24 hours, the preparation to be tested was administered intraperitoneally (ip) or by gavage (po). The animals were housed singly and, with free access to drinking water, they were offered evaporated milk 30 minutes after administration of the preparation. The consumption of evaporated milk was determined and the general behavior of the animals was monitored every half an hour for 7 hours. The measured milk consumption was compared to that of vehicle-treated control animals.

SMILES: CS(=O)(=O)C1(F)Cc2cc(Cl)ccc2C1=O (stereo not drawn) [Example 1, 5-Chloro-2-fluoro-2-methanesulfonylindan-1-one]
- Reduction in cumulative milk consumption as % of the control (female NMRI mice; compared with vehicle-treated control animals): 48%
- cumulative milk consumption by treated animals (female NMRI mice; evaporated milk offered 30 min after administration, monitored for 7 hours): 5/2.00 ml
- melting point: 150 °C
